28 molecules from patent US20120323002A1, “IMIDAZOPYRIDAZINE COMPOUNDS” (AJINOMOTO CO., INC., priority 2009, published 2012) can be followed below.

Test [1] deals with IL-12p70 (IL-12p35/p40 complex). The test is described as follows: Cytokine inhibiting action using mouse peritoneal macrophages: IL-12p70 production (ELISA). The format is cell-based, mouse (female Balb/c). The following applies: Peritoneal macrophage, 100 ng/mL mouse interferon-γ + 0.05% (v/v) SAC, incubated overnight, 50% production inhibition concentration. The protocol: 1 mL of a 3% (w/v) thioglycolate solution was intraperitoneally administered to a mouse (female Balb/c). 5 or 6 days later, the peritoneal cells of the mouse were collected, and the adherent cells were used for evaluation. 100 ng/mL of mouse interferon-γ, a 0.05% (v/v) suspension of killed Staphylococcus aureus Cowan I strain (SAC) and a compound of the present invention were added thereto and incubated overnight. After the incubation, the survival rate was measured, and each of IL-12p70 (IL-12p35/p40 complex) and TNF-α was quantified by ELISA using the collected culture supernatant to calculate the 50% production inhibition concentration (IC50) (refer to Table 1; meanwhile, the blanks in the table indicate unmeasured).
In general terms: An ELISA detects its analyte on a solid surface through an enzyme-linked reagent.

The test system is the same in test [2]. The test can be described thus: Cytokine inhibiting action using mouse whole blood: IL-12p70 production (ELISA). The format is cell-based, mouse (female Balb/c). The following applies: mouse whole blood (EDTA), 200 ng/mL mouse interferon-γ + 1.25% (v/v) SAC, incubated overnight; 50% production inhibition concentration. The protocol: The blood (EDTA addition) was collected from a mouse (female Balb/c) and used for evaluation. 200 ng/mL of mouse interferon-γ, a 1.25% (v/v) suspension of killed Staphylococcus aureus Cowan I strain (SAC) and a compound of the present invention were added to a cell culture medium, diluted to become a quantity equal to the blood and incubated overnight.

Broadly, the IC50 is the concentration at which inhibition is half-maximal. As to `Cc1cccc(/C=N/Nc2cc(N3CCOCC3)c3nc(-c4ccccc4)cn3n2)c1` [Compound 1, N-(3-methyl-benzylidene)-N′-(8-morpholin-4-yl-2-phenyl-imidazo[1,2-b]pyridazin-6-yl)-hydrazine], the IC50 in test [1] worked out at 32 nM.

As to `C(=N\Nc1cc(N2CCOCC2)c2nc(-c3ccccc3)cn2n1)/c1c[nH]c2ccccc12` [Compound 2, N-(1H-indol-3-yl-methylidene)-N′-(8-morpholin-4-yl-2-phenyl-imidazo[1,2-b]pyridazin-6-yl)-hydrazine], the IC50 in test [1] is 36 nM.

`Cc1cccc(/C=N/Nc2cc(N3CCOCC3)c3nc(-c4cnn(-c5ccccc5)c4C)cn3n2)c1` [Compound 5, N-(3-methyl-benzylidene)-N′-[2-(5-methyl-1-phenyl-1H-pyrazol-4-yl)-8-morpholin-4-yl-imidazo[1,2-b]pyridazin-6-yl]-hydrazine]: in test [1], the IC50 worked out at 33 nM.

`C(=N\Nc1cc(N2CCOCC2)c2nc(-c3ccncc3)cn2n1)/c1c[nH]c2ccccc12` [Compound 6, N-(1H-indol-3-yl-methylidene)-N′-(8-morpholin-4-yl-2-pyridin-4-yl-imidazo[1,2-b]pyridazin-6-yl)-hydrazine]: the IC50 in test [1] was found to be 92 nM.

With `Cc1cccc(/C=N/Nc2cc(N3CCOCC3)c3nc(-c4ccc(N5CCCC5)cc4)cn3n2)c1` [Compound 7, N-(3-methyl-benzylidene)-N′-[8-morpholin-4-yl-2-(4-pyrrolidin-1-yl-phenyl)-imidazo[1,2-b]pyridazin-6-yl]-hydrazine], the IC50 in test [1] was determined as 40 nM.

On to `Cc1cccc(/C=N/Nc2cc(N3CCOCC3)c3nc(-c4ccc(-c5ccccn5)s4)cn3n2)c1` [Compound 8, N-(3-methyl-benzylidene)-N′-[8-morpholin-4-yl-2-(5-pyridin-2-yl-thiophen-2-yl)-imidazo[1,2-b]pyridazin-6-yl]-hydrazine], for which the values for the IC50 in test [2] and in test [1] were 1500 nM and 15 nM, respectively.

`C(=N\Nc1cc(N2CCOCC2)c2nc(-c3ccncc3)cn2n1)/c1coc2ccccc12` [Compound 9, N-benzofuran-3-yl-methylidene-N′-(8-morpholin-4-yl-2-pyridin-4-yl-imidazo[1,2-b]pyridazin-6-v)-hydrazine]: the IC50 in test [2] was found to be 890 nM; in test [1], 76 nM.

Consider `CCc1cccc(/C=N/Nc2cc(N3CCOCC3)c3nc(-c4ccncc4)cn3n2)c1` [Compound 10, N-(3-ethyl-benzylidene)-N′-(8-morpholin-4-yl-2-pyridin-4-yl-imidazo[1,2-b]pyridazin-6-yl)-hydrazine], for which the IC50 in test [2] turned out to be 180 nM; in test [1], 8.1 nM.

Turning to `C(=N\Nc1cc(N2CCOCC2)c2nc(-c3ccncc3)cn2n1)/c1csc2ccccc12` [Compound 11, N-benzo[b]thiophen-3-yl-methylidene-N′-(8-morpholin-4-yl-2-pyridin-4-yl-imidazo[1,2-b]pyridazin-6-yl)-hydrazine], the IC50 in test [2] came out at 1000 nM; in test [1] it was 30 nM.

Consider `Cc1[nH]c2ccc(/C=N/Nc3cc(N4CCOCC4)c4nc(-c5ccncc5)cn4n3)cc2c1C` [Compound 12, N-(2,3-dimethyl-1H-indol-5-yl-methylidene)-N′-(8-morpholin-4-yl-2-pyridin-4-yl-imidazo[1,2-b]pyridazin-6-yl)-hydrazine], for which, in test [1], the IC50 is 140 nM.

Regarding `Cc1ccc(/C=N/Nc2cc(N3CCOCC3)c3nc(-c4ccncc4)cn3n2)o1` [Compound 13, N-(5-methyl-furan-2-yl-methylidene)-N′-(8-morpholin-4-yl-2-pyridin-4-yl-imidazo[1,2-b]pyridazin-6-yl)-hydrazine], in test [1], the IC50 was determined as 190 nM.

For `CC(C)c1cccc(/C=N/Nc2cc(N3CCOCC3)c3nc(-c4ccncc4)cn3n2)c1` [Compound 14, N-(3-isopropyl-benzylidene)-N′-(8-morpholin-4-yl-2-pyridin-4-yl-imidazo[1,2-b]pyridazin-6-yl)-hydrazine], the IC50 in test [1] is 130 nM.

For `C(=N\Nc1cc(N2CCOCC2)c2nc(-c3ccncc3)cn2n1)/c1ccc2cc[nH]c2c1` [Compound 15, N-(1H-indol-6-yl-methylidene)-N′-(8-morpholin-4-yl-2-pyridin-4-yl-imidazo[1,2-b]pyridazin-6-yl)-hydrazine], in test [1], the IC50 is 54 nM.

In the case of `C=C(C)c1cccc(/C=N/Nc2cc(N3CCOCC3)c3nc(-c4ccncc4)cn3n2)c1` [Compound 16, N-(3-isopropenyl-benzylidene)-N′-(8-morpholin-4-yl-2-pyridin-4-yl-imidazo[1,2-b]pyridazin-6-yl)-hydrazine], the IC50 in test [1] turned out to be 77 nM.

As for `CC(=O)c1cccc(/C=N/Nc2cc(N3CCOCC3)c3nc(-c4ccncc4)cn3n2)c1` [Compound 17, N-(3-acetyl-benzylidene)-N′-(8-morpholin-4-yl-2-pyridin-4-yl-imidazo[1,2-b]pyridazin-6-yl)-hydrazine], the IC50 in test [1] is 37 nM.

Consider `CCCCC(C)c1cccc(/C=N/Nc2cc(N3CCOCC3)c3nc(-c4ccncc4)cn3n2)c1` (stereo not drawn) [Compound 18, N-[3-(1-methyl-pentyl)-benzylidene]-N′-(8-morpholin-4-yl-2-pyridin-4-yl-imidazo[1,2-b]pyridazin-6-yl)-hydrazine], for which the IC50 in test [1] was 1100 nM.

As for `C=Cc1cccc(/C=N/Nc2cc(N3CCOCC3)c3nc(-c4ccncc4)cn3n2)c1` [Compound 19, N-(3-vinyl-benzylidene)-N-(8-morpholin-4-yl-2-pyridin-4-yl-imidazo[1,2-b]pyridazin-6-yl)-hydrazine], in test [1], the IC50 came out at 6.4 nM.

For the molecule `C(=N\Nc1cc(N2CCOCC2)c2nc(-c3ccncc3)cn2n1)/c1ccc2occc2c1` [Compound 20, N-benzofuran-5-ylmethylene-N′-(8-morpholin-4-yl-2-pyridin-4-yl-imidazo[1,2-b]pyridazin-6-yl)-hydrazine], the IC50 in test [2] was 150 nM; in test [1], 9.4 nM.

On to `C(=N\Nc1cc(N2CCOCC2)c2nc(-c3ccncc3)cn2n1)/c1cc2ccccc2[nH]1` [Compound 21, N-(1H-indol-2-ylmethylene)-N-(8-morpholin-4-yl-2-pyridin-4-yl-imidazo[1,2-b]pyridazin-6-yl)-hydrazine], for which the IC50 in test [2] came to 340 nM; in test [1], 16 nM.

On to `FC(F)c1cccc(/C=N/Nc2cc(N3CCOCC3)c3nc(-c4ccncc4)cn3n2)c1` [Compound 22, N-(3-difluoromethyl-benzylidene)-N-(8-morpholin-4-yl-2-pyridin-4-yl-imidazo[1,2-b]pyridazin-6-yl)-hydrazine], for which the half-inhibitory concentration (IC50) was determined as 110 nM in test [2] and 40 nM in test [1].

As for `CN(C)c1cccc(/C=N/Nc2cc(N3CCOCC3)c3nc(-c4ccncc4)cn3n2)c1` [Compound 23, N-(3-dimethylamino-benzylidene)-N-(8-morpholin-4-yl-2-pyridin-4-yl-imidazo[1,2-b]pyridazin-6-yl)-hydrazine], the IC50 was 550 nM in test [2] and 63 nM in test [1].

In the case of `Cc1ccc(/C=N/Nc2cc(N3CCOCC3)c3nc(-c4ccncc4)cn3n2)[nH]1` [Compound 24, N-(5-methyl-1H-pyrrol-2-ylmethylene)-N-(8-morpholin-4-yl-2-pyridin-4-yl-imidazo[1,2-b]pyridazin-6-yl)-hydrazine], in test [1], the IC50 was 370 nM.

With `Cc1ccc(/C=N/Nc2cc(N3CCOCC3)c3nc(-c4ccncc4)cn3n2)cc1` [Compound 25, N-(4-methyl-benzylidene)-N′-(8-morpholin-4-yl-2-pyridin-4-yl-imidazo[1,2-b]pyridazin-6-yl)-hydrazine], the IC50 in test [2] was determined as 63 nM; in test [1], 44 nM.

For `FCc1ccc(/C=N/Nc2cc(N3CCOCC3)c3nc(-c4ccncc4)cn3n2)cc1` [Compound 26, N-(4-fluoromethyl-benzylidene)-N′-(8-morpholin-4-yl-2-pyridin-4-yl-imidazo[1,2-b]pyridazin-6-yl)-hydrazine], the figures for the IC50 in test [2] and in test [1] were 270 nM and 46 nM, respectively.

Take `CN1CCc2ccc(/C=N/Nc3cc(N4CCOCC4)c4nc(-c5ccncc5)cn4n3)cc21` [Compound 27, N-(N-methylindoline-6-ylmethylene)-N-(8-morpholin-4-yl-2-pyridin-4-yl-imidazo[1,2-b]pyridazin-6-yl)-hydrazine]: the IC50 was 1200 nM in test [2] and 44 nM in test [1].

As to `Cc1ccccc1/C=N/Nc1cc(N2CCOCC2)c2nc(-c3ccncc3)cn2n1` [Compound 28, N-(2-methyl-benzylidene)-N′-(8-morpholin-4-yl-2-pyridin-4-yl-imidazo[1,2-b]pyridazin-6-yl)-hydrazine], the IC50 in test [2] turned out to be 290 nM; in test [1], 76 nM.

`Cc1cccc(/C=N/Nc2cc(N3CCOCC3)c3nc(-c4cn[nH]c4)cn3n2)c1` [Compound 29, N-(3-methyl-benzylidene)-N′-{8-morpholin-4-yl-2-(1H-pyrazol-4-yl)-imidazo[1,2-b]pyridazin-6-yl}-hydrazine]: the IC50 in test [2] is 1400 nM; in test [1], 1.1 nM.

Take `Cc1ccc(-c2cn3nc(N/N=C/c4c[nH]c5ccccc45)cc(N4CCOCC4)c3n2)cn1` [Compound 30, N-(1H-indol-3-yl-methylene)-N′-[2-(6-methyl-pyridin-3-yl)-8-morpholin-4-yl-imidazo[1,2-b]pyridazin-6-yl]-hydrazine]: the IC50 amounted to 1900 nM in test [2] and 5.2 nM in test [1].
